Test results published in PubChem BioAssay (NCI).
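96-well plates; 48 h exposure; 5 concentrations. Endpoints by linear interpolation between flanking doses. Not reached: highest tested concentration assigned. GI50 is the concentration that inhibits growth by half. TGI: total growth inhibition.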

Legend:
Experiment in all cases: NCI anticancer screen, dose series, 48 h
OVCAR-3 ovarian = system: OVCAR-3 ovarian
UACC-257 melanoma = system: UACC-257 melanoma
HCT-15 colon = system: HCT-15 colon
UACC-62 melanoma = system: UACC-62 melanoma
SK-OV-3 ovarian = system: SK-OV-3 ovarian
U251 CNS = system: U251 CNS
HT29 colon = system: HT29 colon
K-562 leukemia = system: K-562 leukemia
SK-MEL-5 melanoma = system: SK-MEL-5 melanoma
HS 578T breast = system: HS 578T breast

SMILES | TGI (OVCAR-3 ovarian) [µM] | TGI (UACC-257 melanoma) [µM] | TGI (HCT-15 colon) [µM] | TGI (UACC-62 melanoma) [µM] | TGI (SK-OV-3 ovarian) [µM] | TGI (U251 CNS) [µM] | TGI (HT29 colon) [µM] | TGI (K-562 leukemia) [µM] | TGI (SK-MEL-5 melanoma) [µM] | GI50 (HS 578T breast) [µM] | TGI (HS 578T breast) [µM] | GI50 (OVCAR-3 ovarian) [µM] | GI50 (HCT-15 colon) [µM] | GI50 (UACC-62 melanoma) [µM] | GI50 (SK-OV-3 ovarian) [µM] | GI50 (U251 CNS) [µM] | GI50 (HT29 colon) [µM] | GI50 (K-562 leukemia) [µM] | GI50 (SK-MEL-5 melanoma) [µM] | GI50 (UACC-257 melanoma) [µM]
CN(CCCN1C(=O)c2cccc3cc([N+](=O)[O-])cc(c23)C1=O)CCN(C)CCCN1C(=O)c2cccc3cc([N+](=O)[O-])cc(c23)C1=O | > 39.3 | > 39.3 | > 39.3 | > 39.3 | > 39.3 | > 39.3 | > 39.3 | > 39.3 | > 39.3 | – | – | – | – | – | – | – | – | – | – | –
O=[N+]([O-])c1ccc(C2SCc3nc4ccccc4n32)cc1 (stereo not given) | – | > 100 | – | > 100 | > 100 | > 100 | > 100 | > 100 | 39.2 | – | – | – | – | – | – | – | – | – | – | –
O=C(N=Nc1c(Cl)c(O)c2ccccc2c1O)C(=O)Nc1cccc(C(F)(F)F)c1 | 4.64 | – | 12 | 16.2 | 26.7 | 10.9 | 28 | 25.6 | 3.98 | 2.6 | 8.6 | 1.77 | 3.21 | 3.33 | 12.9 | 3.05 | 6.44 | 3.94 | 1.7 | –
C[C@]12CC(C=O)C(=O)C(O)=C1CC[C@@H]1C2CC[C@@]2(C)C1CC[C@]2(C)O (stereo not given in full) | 64.7 | 75.5 | 60.8 | 36.5 | 46.3 | 44.9 | 23.5 | > 100 | 34.5 | – | – | – | – | – | – | – | – | – | – | –
Cc1cc(-c2nc3n(c2/C=N/N=C(N)N)CCS3)c(C)s1 | 36.3 | – | 28 | 25.5 | 36.9 | 32.1 | 37.6 | 42.4 | 29.9 | – | – | 21.9 | 14.8 | 12.9 | 19.8 | 15.6 | 17.4 | 19.1 | 16.3 | –
COc1c(-c2ccc3c(c2)OCO3)oc2cc(O)cc(O)c2c1=O | – | > 100 | > 100 | > 100 | 85.4 | > 100 | > 100 | > 100 | > 100 | – | 53.3 | – | – | – | – | – | – | – | – | –
COc1ccc2c(CCCc3ccc(Cl)cc3Cl)c3[n+](cc2c1OC)CCc1cc2c(cc1-3)OCO2 | – | – | 3.29 | 1.38 | 2.2 | – | – | – | 0.561 | – | – | – | 1.72 | 0.284 | 0.873 | – | – | – | 0.212 | –
COc1cc2c3cc1Oc1c(OC)c(OC)cc4c1[C@@H](Cc1ccc(O)c(c1)Oc1ccc(cc1)C[C@@H]3N(C)CC2)N(C)CC4 | 29.5 | 10.9 | 27.2 | 30.5 | – | 21.7 | 24.1 | 33.5 | 11.8 | – | – | – | – | – | – | – | – | – | – | –
COC(=O)C(=O)C(C(C)=O)C(=O)NCc1ccccc1 (stereo not given) | > 100 | > 100 | > 100 | > 100 | – | > 100 | > 100 | > 100 | > 100 | – | – | – | – | – | – | – | – | – | – | –
CCCCCN(CCCCC)C(=O)[C@H](CCC(=O)O)NC(=O)c1cc2ccccc2[nH]1 | > 100 | > 100 | > 100 | > 100 | > 100 | > 100 | > 100 | > 100 | – | – | – | – | – | – | – | – | – | – | – | –
COc1cc(C2c3cc4c(cc3[C@@H](Nc3ccc([N+](=O)[O-])cc3)C3COC(=O)[C@H]23)OCO4)cc(OC)c1O (stereo not given in full) | 17.3 | 34.5 | 19.6 | 8.31 | 10.1 | 7.69 | 7.81 | 39.4 | 3.94 | – | – | – | – | 0.547 | 0.798 | 0.418 | – | – | 0.74 | –
COC(=O)C12C34C=CC5(CCC6(C=CC1(CC3)O6)C52C(=O)OC)O4 (stereo not given) | – | > 100 | – | – | > 100 | > 100 | > 100 | > 100 | – | – | – | – | – | – | – | – | – | – | – | –
CCC[CH2][Sn]([CH2]CCC)([O]C(=O)c1cc(F)ccc1F)[O]C(=O)c1cc(F)ccc1F | 2.61 | 2.49 | 2.44 | 2.65 | 5.64 | 2.11 | 3.17 | 1.35 | 2.91 | – | – | 1.33 | 1.18 | 1.36 | 2.79 | 0.888 | 1.68 | 0.294 | 1.57 | 1.24
O=C(COC(=O)c1cccc2c(=O)c3ccccc3[nH]c12)Nc1ccc(Cl)cc1 | > 100 | > 100 | – | > 100 | > 100 | > 100 | > 100 | > 100 | > 100 | – | – | – | – | – | – | – | – | – | – | –
Cc1c(Cl)cccc1NC(=O)c1sc2nc3c(cc2c1N)C(=O)CCC3 | 0.53 | – | > 100 | > 100 | > 89.7 | > 37.4 | > 33.4 | > 100 | 2.78 | 0.0479 | > 58.2 | 0.048 | 0.0665 | 0.0502 | 0.0597 | 0.0836 | 0.0445 | 0.0371 | 0.13 | –
CCCCCCCCC(C)CCCCCCCCC(=O)OCC(COP(=O)([O-])OCC[N+](C)(C)C)OC(=O)CCCCCCCCC(C)CCCCCCCC (stereo not given) | > 100 | > 100 | > 100 | > 100 | > 100 | > 100 | > 100 | > 100 | > 100 | – | – | – | – | – | – | – | – | – | – | –
C[C@]12Cc3conc3C(O)=C1CC[C@@H]1C2CC[C@@]2(C)C1CC[C@]2(C)O (stereo not given in full) | 80.7 | 80.4 | > 100 | 29.2 | 57.4 | 48.9 | 89.4 | 87.8 | 30.7 | – | – | – | – | – | – | – | – | – | – | –
Cc1ccc(C)c(NC(=O)C(=O)C2C(=O)N(c3ccccc3)N=C2N)c1 (stereo not given) | > 100 | > 100 | > 100 | > 100 | – | > 100 | > 100 | > 100 | > 100 | – | – | – | – | – | – | – | – | – | – | –
O=C1NC2(CCCCC2)C2CCCCC=C12 (stereo not given) | > 100 | > 100 | > 100 | > 100 | > 100 | > 100 | > 100 | > 100 | > 100 | – | – | – | – | – | – | – | – | – | – | –
CCOC(=O)/C(C#N)=C\Sc1ccccc1 | 39.2 | > 100 | – | 42.3 | 74.7 | 29 | 84.4 | > 100 | > 100 | – | – | – | – | – | – | – | – | – | – | –
